Results from patent publication US9517254B2, “Treatment regimens” (S1 Biopharma, Inc., priority 2012, dated 2016).
Where “and” joins values, the source holds several entries; their conditions need not be identical. Identical values can stand only once. Numbered stars: 1 amine (or outer) side, 2 acyl side, 3 side chain; on linkers, the order of the positions; unused ones are H or OH. Bridge positions count the residues as written; N and C are the ends. Square brackets hold non-standard residues; d marks the D form. Peptide text beside a SMILES is read from it. X1 = O=C(c1ccc(O)cc1)[C@H](N[*:1])C(=O)[*:2]

Tests used:
healthy volunteer [1] = test: Patient's global impression of improvement (PGI) for sexual events (arousal, orgasm, overall satisfaction), same single-volunteer study; assay type: in vivo, human
healthy volunteer [2] = test: Daily sexual desire score (0-2) in a single volunteer given four sequential 4-week treatments; assay type: in vivo, human; conditions: for sexual desire, comparison of bupropion alone with trazodone alone: 4 weeks each; for sexual desire response: 4 weeks of treatment
Protocol: A healthy volunteer in a stable marital relationship for two years with no current sexual disorders, exposed themself sequentially to four treatments, each for 4 weeks: (1) Treatment B: Instant-release (IR) Bupropion (Bup) 150 mg in the morning and 100 mg in the evening; (2) Treatment T: IR trazodone (Trz) 50 mg t.i.d.; (3) Treatment Llow, IR Trz 25 mg b.i.d. plus IR Bup 150 mg in the morning and 100 mg in the evening; and (4) Treatment Lhigh, IR Trz 50 mg t.i.d. plus IR Bup 75 mg t.i.d. A washout of 1-4 weeks occurred between each treatment.
The test used for the desire score was a two-tailed paired t test, using all scores within a given treatment as repeated measures. […] Both were from the website graphpad.com.* *http://graphpad.com/quickcalcs/chisquared1.cfm

men = conditions: 24 IU intranasal, placebo-controlled; cited from earlier work
patients = conditions: transnasal, three patients; cited from earlier work
[3] = wks 1-2, arousal, orgasm, overall satisfaction

SMILES | PGI Improved for Sexual Events, Sum of 3 domains, % improved (healthy volunteer [1]; total, all four weeks) [%] | PGI Improved for Sexual Events, Sum of 3 domains, n/N (healthy volunteer [1]; total, all four weeks) | PGI Improved for Sexual Events, Sum of 3 domains, % improved (healthy volunteer [1]; wks 1-2) [%] | PGI Improved for Sexual Events, Sum of 3 domains, n/N (healthy volunteer [1]; [3]) | PGI Improved for Sexual Events, Sum of 3 domains, % improved (healthy volunteer [1]; wks 3-4) [%] | PGI Improved for Sexual Events, Sum of 3 domains, n/N (healthy volunteer [1]; wks 3-4) | sexual desire response (healthy volunteer [2]) | 0-2 Daily Desire Score, mean ± SD (healthy volunteer [2]; total, all four weeks) | 0-2 Daily Desire Score, mean ± SD (healthy volunteer [2]; wks 1-2) | 0-2 Daily Desire Score, % of max. (healthy volunteer [2]; wks 1-2, max. = 28) [%] | 0-2 Daily Desire Score, total (healthy volunteer [2]; wks 1-2, max. = 28) | 0-2 Daily Desire Score, % of max. (healthy volunteer [2]; wks 3-4, max. = 28) | 0-2 Daily Desire Score, total (healthy volunteer [2]; wks 3-4, max. = 28) | also measured
CC(NC(C)(C)C)C(=O)c1cccc(Cl)c1 (racemic) [Bup, (±)-2-(tert-Butylamino)-1-(3-chlorophenyl)propan-1-one] | 20 | 6/30 | 27 | 4/15 | 13 | 2/15 | intermediate | 0.82 ± 0.55 | 0.65 ± 0.74 | 32 | 9 | 50% | 14 | arousal, % of sexual events improved (healthy volunteer [1]; third and fourth weeks of use): 0%; arousal, % of sexual events improved (healthy volunteer [1]; total for all four weeks): 20%; arousal, % of sexual events improved (healthy volunteer [1]; weeks 1-2): 40%; arousal, sexual events improved, n/N (healthy volunteer [1]; weeks 1-2): ⅖; PGI Improved for Sexual Events, Sum of 3 domains, % improved (healthy volunteer [1]; wks 3-4, listed as B): 20% and 13%; sexual desire, comparison of bupropion alone with trazodone alone (healthy volunteer [2]; listed as B): markedly superior to T; sexual desire, comparison of bupropion alone with trazodone alone (healthy volunteer [2]; listed as Treatment B): superior to Treatment T
CC[C@H](C)[C@@H]1NC(=O)[C@H](C(=O)c2ccc(O)cc2)NC(=O)[C@@H](N)CSSC[C@@H](C(=O)N2CCC[C@H]2C(=O)N[C@@H](CC(C)C)C(=O)NCC(N)=O)NC(=O)[C@H](CC(N)=O)NC(=O)[C@H](CCC(N)=O)NC1=O [OT, 1-({(4R,7S,10S,13S,16S,19R)-19-amino-7-(2-amino-2-oxoethyl)-10-(3-amino-3-oxopropyl)-16-(4-hydroxybenzoyl)-13-[(1S)-1-methylpropyl]-6,9,12,15,18-pentaoxo-1,2-dithia-5,8,11,14,17-pentaazacycloicosan-4-yl}carbonyl)-L-prolyl-L-leucylglycinamide] (H-C[X1]IQNCPLG-NH2; disulfide 1-6) | – | – | – | – | – | – | – | – | – | – | – | – | – | arousal or orgasm on the Acute Sexual Experiences Scale (ASES) (men): failed to increase arousal or orgasm; effect on sexual function in case reports (patients): pro-sexual effects
O=c1n(CCCN2CCN(c3cccc(Cl)c3)CC2)nc2ccccn12 [Trz, 2-{3-[4-(3-chlorophenyl)piperazin-1-yl]propyl}[1,2,4]triazolo[4,3-a]pyridin-3(2H)-one] | 20 | 6/30 | 25 | 3/12 | 17 | 3/18 | low | 0.07 ± 0.38 | 0.14 ± 0.53 | 7 | 2 | 0, 0% | 0, 0% | 0-2 Daily Desire Score, % of max. (healthy volunteer [2]; total, all four weeks): 4%; 0-2 Daily Desire Score, total (healthy volunteer [2]; total, all four weeks): 2
